According to PMC7793531 (International Journal of Molecular Sciences, 2020):
Where two headings read alike, the source gives them in different places. Non-standard residues stand in square brackets, D forms with d. Residues, ends and D or L forms follow the SMILES beside them. ξ: configuration not given here. Oic(3aξ,7aξ) = O=C(O)[C@@H]1CC2CCCCC2N1; hArg = N=C(N)NCCCC[C@H](N)C(=O)O; Dab = NCC[C@H](N)C(=O)O

Experiments:
VEGF-A165/NRP-1 complex [1] = molecular target: T1, VEGF-A165/NRP-1 complex (Homo sapiens, UniProt O14786); experiment: Competitive ELISA-like assay, inhibition of bt-VEGF-A165 binding to immobilized NRP-1; details: recombinant human NRP-1, bt-VEGF-A165, chemiluminescence; read-out: IC50, VEGF-A165/NRP-1 complex inhibitory effect
T1 construct: purchased R&D Systems
T1 sequence (O14786 22-641 limits assumed): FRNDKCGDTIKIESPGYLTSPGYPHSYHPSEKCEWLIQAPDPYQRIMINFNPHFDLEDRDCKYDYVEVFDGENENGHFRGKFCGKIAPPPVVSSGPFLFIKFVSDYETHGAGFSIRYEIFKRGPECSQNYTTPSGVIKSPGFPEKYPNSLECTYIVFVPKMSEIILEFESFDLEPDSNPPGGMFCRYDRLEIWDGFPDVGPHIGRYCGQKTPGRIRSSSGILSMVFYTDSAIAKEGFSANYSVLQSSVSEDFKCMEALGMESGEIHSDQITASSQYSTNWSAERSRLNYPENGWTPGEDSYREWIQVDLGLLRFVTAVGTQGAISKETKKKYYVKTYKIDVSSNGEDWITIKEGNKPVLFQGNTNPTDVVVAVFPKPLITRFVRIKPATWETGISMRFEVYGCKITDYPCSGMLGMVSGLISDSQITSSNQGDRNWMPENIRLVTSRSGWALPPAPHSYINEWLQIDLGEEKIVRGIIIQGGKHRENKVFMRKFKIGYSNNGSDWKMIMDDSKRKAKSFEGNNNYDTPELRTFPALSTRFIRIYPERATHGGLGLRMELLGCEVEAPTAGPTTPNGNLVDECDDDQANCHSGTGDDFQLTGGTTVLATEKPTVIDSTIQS
Experimental: Inhibitory activity of urea–peptide hybrids against VEGF-A165/NRP-1 complex formation was assessed with a screening ELISA-like assay. NRP-1 was immobilized on microplate wells by simple adsorption and urea–peptide hybrids competed for NRP-1 with biotinylated VEGF-A165 (bt-VEGF-A165). The amount of receptor bound bt-VEGF-A165 was visualized by its interaction with the streptavidin–horseradish peroxidase conjugate (strep-HRP) and the chemiluminescent substrate. The first analyzed group of compounds were analogues 1–3 with the urea bond between L1 and L2. […] The best hybrid in this group was compound 3, which had Lys^U (gDab) branching (where “g” corresponds to guanidinium group), but its IC50 value decreased only 2-fold. Therefore, we assume that no additional interactions between urea bond and the surface of the protein occurred. […] In the case of urea–peptide hybrids, the urea bond might be capable of forming additional hydrogen bonds with protein residues on the surface of NRP-1. The affinity of compounds may conceivably be affected by the colocation of the urea bond and the free amino group of hArg in the branching. In addition, for compounds 4–6, we can observe that decreasing the distance between the free amino group in the main chain and the urea bond in the branching has a positive effect on compounds’ affinity for NRP-1.
This method was previously described for NRP-1 [44, 45, 46]. Briefly, overnight coating at 4 °C of the flat bottom surface of a 96-well plate with 100 μL (200 ng/well) recombinant human NRP-1, NRP-2, VEGFR-1 or VEGFR-2 was followed by non-specific interactions blocking using 0.5% bovine serum albumin (BSA) in PBS. Next, 50 µL of urea–peptide hybrid in PBS and 50 µL (400 ng/mL) of human (bt)-VEGF-A165 in PBS containing 4 µg/mL of heparin were added respectively. Plates were incubated for 2 h at RT, and then washed and treated with streptavidin-horseradish peroxidase conjugate in PBS (1:8000). Next, 100 µL chemiluminescent substrate was added, and luminescence was quantified using Tecan Infinite F200Pro microplate reader (Männedorf, Switzerland). In a positive control (P) only (bt)-VEGF-A165 was present in wells. Not coated by receptor wells were treated as a negative control (N). Percentages of inhibition were calculated by the following formula:100% − [[(S − N)/(P − N)]∙100%](1) where S is the signal intensity measured in wells with urea–peptide hybrid. The IC50 of each urea–peptide hybrid was calculated using the nonlinear regression function with GraphPad Prism Version-5.01 (GraphPad Software, San Diego, CA, USA). Data are presented as log (inhibitor) versus normalized response-variable slope (Figure S16). Data are the means ± SEMs of two or three independent experiments, each performed in triplicate.

[2] = test system: NRP-1-positive breast cancer cells (MDA-MB-231); experiment: Labelled urea-peptide hybrid binding assay at 4 °C on cells (FACS), with NRP-1 co-staining; format: cell-based, human
Source text: VEGF-A165 binds to cell-surface NRP-1 on endothelial cells, effectively reducing surface levels of this receptor, promoting complex internalization and possibly inducing biological effects. Based on this mechanism, peptide carriers for selective drug delivery, such as iRGD peptides, have been recently disclosed. The iRGDs are used to selectively address potential therapeutic agents, e.g., doxorubicin or siRNAs inside malignant cells. We tested our tagged urea–peptide hybrid’s ability to bind human NRP-1-positive breast cancer cells (MDA-MB-231), which expressed large amount of NRP-1 at the cell surface (Figure 6a). A broad range of concentrations between 0 to 100 µg/mL of compound 10 was used to show its binding capacity on cells using fluorescence-activated cell sorting (FACS). […] To follow the impact of the ligation of this peptidomimetic on NRP-1 expression, we verified whether hybrid 10 binding interferes with the antibody used to detect NRP-1. […]
(§1) Cells were harvested using a mix of EDTA/Trypsin buffer (Invitrogen, France) to detach cells from plastic after 5 min exposure at 37 °C. […] After washing with PBS containing 2% FCS, stained cells were analyzed using BD FACSCalibur^TM (San Jose, CA, USA) and FlowJo^TM cell analysis software (FlowJo LLC, Ashland, OR, USA). […]

[3] = test system: NRP-1 expression on MDA-MB-231 breast cancer cells; experiment: Labelled urea-peptide hybrid binding assay at 37 °C, time course of NRP-1 cell surface expression (FACS); format: cell-based, human
Experimental: Usually, in the presence of its natural ligand, a transmembrane receptor at the cell surface may induce signaling, internalization of complex and recycling at the cell surface. […] Thus, to identify the mechanism of action of the hybrid 10 on the NRP-1 expression on cells, we followed its expression after a time course exposure of cells at 37 °C. […] This intriguing result focused our attention on tracking the level of expression intensity of NRP-1 on the surfaced of MDA-MB-231 cells exposed on compound 10. […] The median fluorescent intensity after 1 h (T60) of cell exposure on hybrid 10 was 1.5-fold higher than after 5 min of incubation (Figure 7b). […] This hypothesis is strengthened here, since MDA-MB-231 expressed a large amount of NRP-1 at the cell surface, but also had plenty of the cytoplasmic counterpart, reaching a maximum of median fluorescence intensity higher than the restricted level of NRP-1 expression at the surface (Figure 7c).
as §1

[4] = In vitro enzymatic stability in human blood serum (LC-SWATH-MS); format: in vitro ADME; details: pooled human blood serum, 37 °C
Experimental: Rapid renal clearance and enzymatic degradation are classified as most important disadvantages of peptides as drugs. Covalent linkage to plasma proteins or chemical modifications, including amide bond modifications, might improve their half-lives. We performed proteolytic stability studies in human blood serum to investigate whether the introduction of urea bonds affected the half-lives of compounds from each of synthesized group of hybrids. Compounds 3, 6 and 7 were incubated with human serum at 37 °C. Samples were taken at different time intervals and analyzed using LC-SWATH-MS [88, 89, 90]. […] Hybrids 6 and 7 were stable toward enzymatic degradation, with 50% of each compound still being intact after 96 h (Figure 5). […] Overall, it can be concluded that the substitution of an amide bond with a urea bond has a positive effect on the proteolytic stability of the examined inhibitors.
The study was conducted in full accordance with ethical principles in accordance with the ICH E6 (R2) Guideline for Good Clinical Practice and the Code of Good Customs in Science developed by the Polish Academy of Sciences. Signed consent for using serum was obtained from volunteers. The Rector’s Commission for Ethics of Scientific Research with Human Participation, University of Warsaw, Warsaw, Poland gave the ethical approval (approval number 51/2020). Human blood from four healthy persons was directly drawn into evacuated tubes and left undisturbed at room temperature for 1 h to clot. Tubes were centrifuged at 2500× g for 10 min to prevent possible platelet activation. Serum was pipetted out of the blood collection tubes, pooled and collected in microtubes.
A degradation assay was adapted from a method described previously. Human blood serum was preactivated in Eppendorf ThermoMixer® Comfort (Hamburg, Germany) at 37 °C for 20 min (350 rpm). Next, 20 μL of aqueous urea–peptide hybrid stock solution was added to give ∼750 μg/mL final compound concentration, and incubation was continued. At selected time intervals, 50 μL of the mixture was collected and quenched by adding 200 μL of ACN:H2O:FA mixture (89:10:1, v:v:v). The obtained suspension was vortexed for 1 min (3000 min^−1) and centrifuged for 10 min in 4 °C (11,000× g). 100 μL of supernatant was collected and lyophilized. The samples reconstituted in 1 mL of 10 mM ammonium formate with 0.1% FA were subjected to LC-MS. Relative concentration at time intervals was calculated using peak area of either individual or most intense fragment of compound of interest. Analyst software version 1.7.1 was used for data acquisition, Peak View 2.2 and MultiQuant 2.1 (Sciex, ON) were used for data processing. Detailed analytical data can be found in Supplementary Materials (Figures S17–S45). […]

VEGF-A165/NRP-1 complex [5] = molecular target: T1, VEGF-A165/NRP-1 complex; details: read-out: IC50, VEGF-A165/NRP-1 complex inhibitory effect, cited from earlier work

In the case of “5/6-FAM-Dab(hArg^U)-Dab-Oic-Arg [Compound 10]”, the IC50 (VEGF-A165/NRP-1 complex [1]) is reported as 4.04 µM, the binding on cells ([2]; 0 to 100 µg/mL, FACS) is reported as “dose-dependent” and the “median fluorescence intensity of NRP-1 staining in presence of compound” value ([2]; 100 μg/ml, 4 °C, 94 in its absence) is reported as 88. The “median fluorescent intensity of NRP-1 after 1 h (T60) relative to 5 min of incubation” value ([3]; 100 µg/mL, 37 °C) was 1.5 fold and the “effect on NRP-1 cell surface expression” value ([3]; time course at 37 °C, independently of time exposure) was “no downmodulation of NRP-1 expression”.

For `N=C(N)NCCCC[C@H](N)C(=O)NCCCC[C@H](N)C(=O)N[C@@H](CCN)C(=O)N1C2CCCCC2C[C@H]1C(=O)N[C@@H](CCCNC(=N)N)C(=O)O` (stereo partly drawn) [PP, Lys(hArg)-Dab-Oic-Arg, reference compound] (H-K(hArg)[Dab][Oic(3aξ,7aξ)]R-OH), the half-life [4] is given as 8 h and the IC50 (VEGF-A165/NRP-1 complex [5]; data already published) is given as 2.3 µM.

In the case of Lys(Arg^U)–Dab–Oic–Arg, the IC50 (VEGF-A165/NRP-1 complex [5]; earlier urea analogue) is given as 5.5 µM.
